Experimental data as given in publication PMC11157767 (Molecular Cancer, 2024).

Test system: TRIM24-MET-i cells
Method: The number of unique and shared differentially expressed genes between each comparison are shown in parentheses. A linear regression line is depicted along with Pearson’s correlation coefficient (r) and its associated p-value. […] Common negatively enriched genesets between all three comparisons are in bold. c, Heatmaps showing expression of Hallmark_Myc_Target_v1/2 genes for indicated cells and treatment comparisons (TRIM-MET cells were treated in vitro, TFG-MET cells in vivo). Select leading edge genes from GSEA are labeled.

C[C@@H](Oc1cc(-c2cnn(C3CCNCC3)c2)cnc1N)c1c(Cl)ccc(F)c1Cl [Crizotinib]
ES GOMF_CATALYTIC_ACTIVITY_ACTING_ON_A_TRNA: -0.6982 | ES GOMF_GTPASE_ACTIVITY: -0.4838 | ES GOMF_GUANYL_NUCLEOTIDE_BINDING: -0.4485 | ES GOMF_HYDROLASE_ACTIVITY_ACTING_ON_ACID_ANHYDRIDES: -0.386 | ES GOMF_RRNA_BINDING: -0.7423 | NES GOMF_CATALYTIC_ACTIVITY_ACTING_ON_A_TRNA: -2.2819 | NES GOMF_GTPASE_ACTIVITY: -1.922 | NES GOMF_GUANYL_NUCLEOTIDE_BINDING: -1.812 | NES GOMF_HYDROLASE_ACTIVITY_ACTING_ON_ACID_ANHYDRIDES: -1.664 | NES GOMF_RRNA_BINDING: -2.231 | ES GARY_CD5_TARGETS_DN (GSEA v. DMSO): -0.652 | ES HALLMARK_ADIPOGENESIS (GSEA v. DMSO): -0.2603 | ES HALLMARK_ALLOGRAFT_REJECTION (GSEA v. DMSO): -0.4058 | ES HALLMARK_ANDROGEN_RESPONSE (GSEA v. DMSO): -0.4828 | ES HALLMARK_ANGIOGENESIS (GSEA v. DMSO): -0.5624 | ES HALLMARK_APICAL_JUNCTION (GSEA v. DMSO): -0.293 | ES HALLMARK_APICAL_SURFACE (GSEA v. DMSO): 0.4986 | ES HALLMARK_APOPTOSIS (GSEA v. DMSO): -0.4398 | ES HALLMARK_CHOLESTEROL_HOMEOSTASIS (GSEA v. DMSO): 0.2795 | ES HALLMARK_COAGULATION (GSEA v. DMSO): -0.4513 | ES HALLMARK_COMPLEMENT (GSEA v. DMSO): -0.5126 | ES HALLMARK_DNA_REPAIR (GSEA v. DMSO): -0.2541 | ES HALLMARK_E2F_TARGETS (GSEA v. DMSO): -0.2746 | ES HALLMARK_EPITHELIAL_MESENCHYMAL_TRANSITION (GSEA v. DMSO): -0.3755 | ES HALLMARK_ESTROGEN_RESPONSE_EARLY (GSEA v. DMSO): -0.4277 | ES HALLMARK_ESTROGEN_RESPONSE_LATE (GSEA v. DMSO): -0.3421 | ES HALLMARK_G2M_CHECKPOINT (GSEA v. DMSO): -0.3012 | ES HALLMARK_GLYCOLYSIS (GSEA v. DMSO): -0.404 | ES HALLMARK_HEDGEHOG_SIGNALING (GSEA v. DMSO): -0.4466 | ES HALLMARK_HYPOXIA (GSEA v. DMSO): -0.3351 | ES HALLMARK_IL2_STAT5_SIGNALING (GSEA v. DMSO): -0.5189 | ES HALLMARK_IL6_JAK_STAT3_SIGNALING (GSEA v. DMSO): -0.4268 | ES HALLMARK_INFLAMMATORY_RESPONSE (GSEA v. DMSO): -0.4921 | ES HALLMARK_INTERFERON_ALPHA_RESPONSE (GSEA v. DMSO): 0.2583 | ES HALLMARK_INTERFERON_GAMMA_RESPONSE (GSEA v. DMSO): -0.3093 | ES HALLMARK_KRAS_SIGNALING_DN (GSEA v. DMSO): 0.3288 | ES HALLMARK_KRAS_SIGNALING_UP (GSEA v. DMSO): -0.4922 | ES HALLMARK_MITOTIC_SPINDLE (GSEA v. DMSO): -0.2568 | ES HALLMARK_MTORC1_SIGNALING (GSEA v. DMSO): -0.5236 | ES HALLMARK_MYC_TARGETS_V1 (GSEA v. DMSO): -0.6267 | ES HALLMARK_MYC_TARGETS_V2 (GSEA v. DMSO): -0.805 | ES HALLMARK_MYOGENESIS (GSEA v. DMSO): -0.2282 | ES HALLMARK_NOTCH_SIGNALING (GSEA v. DMSO): -0.4408 | ES HALLMARK_OXIDATIVE_PHOSPHORYLATION (GSEA v. DMSO): -0.4296 | ES HALLMARK_P53_PATHWAY (GSEA v. DMSO): -0.2784 | ES HALLMARK_PANCREAS_BETA_CELLS (GSEA v. DMSO): 0.2429 | ES HALLMARK_PEROXISOME (GSEA v. DMSO): 0.273 | ES HALLMARK_PI3K_AKT_MTOR_SIGNALING (GSEA v. DMSO): -0.3625 | ES HALLMARK_PROTEIN_SECRETION (GSEA v. DMSO): -0.4081 | ES HALLMARK_TGF_BETA_SIGNALING (GSEA v. DMSO): -0.5775 | ES HALLMARK_TNFA_SIGNALING_VIA_NFKB (GSEA v. DMSO): -0.5914 | ES HALLMARK_UNFOLDED_PROTEIN_RESPONSE (GSEA v. DMSO): -0.6237 | ES HALLMARK_UV_RESPONSE_DN (GSEA v. DMSO): -0.3089 | ES HALLMARK_UV_RESPONSE_UP (GSEA v. DMSO): -0.4076 | ES HALLMARK_WNT_BETA_CATENIN_SIGNALING (GSEA v. DMSO): -0.3432 | ES KRIGE_RESPONSE_TO_TOSEDOSTAT_6HR_DN (GSEA v. DMSO): -0.6237 | ES KRIGE_RESPONSE_TO_TOSEDOSTAT_24HR_DN (GSEA v. DMSO): -0.6444 | ES LEE_BMP2_TARGETS_DN (GSEA v. DMSO): -0.6669 | ES WEI_MYCN_TARGETS_WITH_E_BOX (GSEA v. DMSO): -0.6994 | NES GARY_CD5_TARGETS_DN (GSEA v. DMSO): -2.697 | NES HALLMARK_ADIPOGENESIS (GSEA v. DMSO): -0.9905 | NES HALLMARK_ALLOGRAFT_REJECTION (GSEA v. DMSO): -1.519 | NES HALLMARK_ANDROGEN_RESPONSE (GSEA v. DMSO): -1.666 | NES HALLMARK_ANGIOGENESIS (GSEA v. DMSO): -1.626 | NES HALLMARK_APICAL_JUNCTION (GSEA v. DMSO): -1.114 | NES HALLMARK_APICAL_SURFACE (GSEA v. DMSO): 1.572 | NES HALLMARK_APOPTOSIS (GSEA v. DMSO): -1.646 | NES HALLMARK_CHOLESTEROL_HOMEOSTASIS (GSEA v. DMSO): 0.993 | NES HALLMARK_COAGULATION (GSEA v. DMSO): -1.59 | NES HALLMARK_COMPLEMENT (GSEA v. DMSO): -1.9374 | NES HALLMARK_DNA_REPAIR (GSEA v. DMSO): -0.9367 | NES HALLMARK_E2F_TARGETS (GSEA v. DMSO): -1.051 | NES HALLMARK_EPITHELIAL_MESENCHYMAL_TRANSITION (GSEA v. DMSO): -1.427 | NES HALLMARK_ESTROGEN_RESPONSE_EARLY (GSEA v. DMSO): -1.626 | NES HALLMARK_ESTROGEN_RESPONSE_LATE (GSEA v. DMSO): -1.298 | NES HALLMARK_G2M_CHECKPOINT (GSEA v. DMSO): -1.145 | NES HALLMARK_GLYCOLYSIS (GSEA v. DMSO): -1.5363 | NES HALLMARK_HEDGEHOG_SIGNALING (GSEA v. DMSO): -1.301 | NES HALLMARK_HYPOXIA (GSEA v. DMSO): -1.274 | NES HALLMARK_IL2_STAT5_SIGNALING (GSEA v. DMSO): -1.973 | NES HALLMARK_IL6_JAK_STAT3_SIGNALING (GSEA v. DMSO): -1.432 | NES HALLMARK_INFLAMMATORY_RESPONSE (GSEA v. DMSO): -1.856 | NES HALLMARK_INTERFERON_ALPHA_RESPONSE (GSEA v. DMSO): 0.9765 | NES HALLMARK_INTERFERON_GAMMA_RESPONSE (GSEA v. DMSO): -1.175 | NES HALLMARK_KRAS_SIGNALING_DN (GSEA v. DMSO): 1.322 | NES HALLMARK_KRAS_SIGNALING_UP (GSEA v. DMSO): -1.8648 | NES HALLMARK_MITOTIC_SPINDLE (GSEA v. DMSO): -0.9855 | NES HALLMARK_MTORC1_SIGNALING (GSEA v. DMSO): -2.004 | NES HALLMARK_MYC_TARGETS_V1 (GSEA v. DMSO): -2.398 | NES HALLMARK_MYC_TARGETS_V2 (GSEA v. DMSO): -2.6016 | NES HALLMARK_MYOGENESIS (GSEA v. DMSO): -0.867 | NES HALLMARK_NOTCH_SIGNALING (GSEA v. DMSO): -1.2742 | NES HALLMARK_OXIDATIVE_PHOSPHORYLATION (GSEA v. DMSO): -1.635 | NES HALLMARK_P53_PATHWAY (GSEA v. DMSO): -1.06 | NES HALLMARK_PANCREAS_BETA_CELLS (GSEA v. DMSO): 0.7197 | NES HALLMARK_PEROXISOME (GSEA v. DMSO): 1.047 | NES HALLMARK_PI3K_AKT_MTOR_SIGNALING (GSEA v. DMSO): -1.259 | NES HALLMARK_PROTEIN_SECRETION (GSEA v. DMSO): -1.414 | NES HALLMARK_TGF_BETA_SIGNALING (GSEA v. DMSO): -1.842 | NES HALLMARK_TNFA_SIGNALING_VIA_NFKB (GSEA v. DMSO): -2.258 | NES HALLMARK_UNFOLDED_PROTEIN_RESPONSE (GSEA v. DMSO): -2.204 | NES HALLMARK_UV_RESPONSE_DN (GSEA v. DMSO): -1.132 | NES HALLMARK_UV_RESPONSE_UP (GSEA v. DMSO): -1.522 | NES HALLMARK_WNT_BETA_CATENIN_SIGNALING (GSEA v. DMSO): -1.0353 | NES KRIGE_RESPONSE_TO_TOSEDOSTAT_6HR_DN (GSEA v. DMSO): -2.692 | NES KRIGE_RESPONSE_TO_TOSEDOSTAT_24HR_DN (GSEA v. DMSO): -2.791 | NES LEE_BMP2_TARGETS_DN (GSEA v. DMSO): -2.874 | NES WEI_MYCN_TARGETS_WITH_E_BOX (GSEA v. DMSO): -3.001 | ES GOBP_NCRNA_PROCESSING (GSEA, v. DMSO): -0.7604 | ES GOBP_RIBONUCLEOPROTEIN_COMPLEX_BIOGENESIS (GSEA, v. DMSO): -0.7216 | ES GOBP_RIBOSOME_BIOGENESIS (GSEA, v. DMSO): -0.7916
